Measured values as given in patent publication US20100286255A1, “METHOD FOR EXTRACTING SECOISOLARICIRESINOL AND DIHYDROQUERCETIN FROM WOOD” (priority 2007, published 2010).

Legend:
MCF-7 cells = assay: Proliferation of human breast cancer cells MCF-7 (estrogenic and antiestrogenic activity); format: cell-based; conditions: ethanol test = 100
Protocol: The comparative study of the proliferation of the human breast cancer cells MCF-7 under the action of estradiol, SECO, and SECO-containing extracts was carried out according to a known method (H. Adlercreutz, Y. Mousavi, “Enterolactone and estradiol inhibit each other's proliferative effect on MCF-7 breast cancer cells in culture,” J. Steroid. Biochem. Mol. Biol. 41: 615-619 (1992)). To estimate the estrogenic activity of the preparations containing SECO, 1 M solutions of the latter in ethanol (the concentration is indicated for SECO present in the solution) were added to the cell culture with achievement of the final 1 μM concentration of SECO. In each experiment on proliferation, 17β-estradiol was used as a positive standard for the estimation of the estrogenic activity and was also added as an ethanolic solution to achieve the final 1 nM concentration. To estimate the antiestrogenic activity, solutions of 17β-estradiol and the tested SECO preparations, among which there were the preparations obtained under the conditions of Examples 6, 7, and 14, were simultaneously added to the cell culture. The cell proliferation was estimated by counting the number of cells with the Coulter counter, and the results obtained are summarized in Table 2. In the test experiment (see entry 1 in Table 2), ethanol without lignan was added. Five measurements were carried out under each type of conditions.

[1] = tested on: Saccharomyces cerevisiae BKM Y-1173; assay: Survival rate of S. cerevisiae cells under the action of hydrogen peroxide (antioxidant activity); format: cell-based; conditions: antioxidant 5 mg/ml (for DHQ + SECO, total concentration of both), 1 h incubation
Protocol: Antioxidant activity of DHQ, SECO, and their complexes obtained under the conditions of Examples 6 and 7 was studied by a known method (D. J. Jamieson, “Saccharomyces cerevisiae has distinct adaptive responses to both hydrogen peroxide and menadione” J. Bacteriol. 174: 6678-6681 (1992)) on yeast Saccharomyces cerevisiae BKM Y-1173. The yeasts were grown to the mid-logarithmic growth stage on […] medium containing 2% glucose, the yeast extract, and mineral salts. The yeast cells were separated from the medium by centrifugation, two times washed with water, and incubated with hydrogen peroxide and antioxidants in an aqueous suspension (OD600 0.1-0.15) for 1 h with periodic shaking. Then the corresponding dilutions were made, the yeasts were seeded on the agarized glucose-peptone medium and cultivated for […] at 30° C., and the number of grown colonies and the survival rate of S. cerevisiae cells were counted (Table 1).

| Structure (SMILES) | Proliferation of cells MCF-7, % (MCF-7 cells; positive standard alone, final 1 nM concentration) | Survival rate, % of test ([1]; 5 mM H2O2) | Survival rate, % of test ([1]; 10 mM H2O2) | Survival rate, % of test ([1]; Test (no H2O2)) | Proliferation of cells MCF-7, % (MCF-7 cells; antiestrogenic activity, added simultaneously with 17β-estradiol (1 nM), SECO 1 μM) | Proliferation of cells MCF-7, % (MCF-7 cells; estrogenic activity, preparation alone, final 1 μM concentration of SECO) |
| --- | --- | --- | --- | --- | --- | --- |
| C[C@]12CC[C@@H]3c4ccc(O)cc4CC[C@H]3[C@@H]1CC[C@@H]2O [17β-estradiol, reference compound] | 140 ± 15% | – | – | – | – | – |
| O=C1c2c(O)cc(O)cc2O[C@H](c2ccc(O)c(O)c2)[C@H]1O [DHQ (Example 13), Dihydroquercetin] | – | 35 ± 5 % of test | 9 ± 2 % of test | 100 % of test | – | – |
| COc1cc(C[C@@H](CO)[C@H](CO)Cc2ccc(O)c(OC)c2)ccc1O [SECO (Example 14), secoisolariciresinol] | – | 35 ± 5 % of test | 9 ± 1 % of test | 100 % of test | 115 ± 10% | 115 ± 10% |
